Assay results as given in PMC12851022, “Targeting the Spliceosomal Protein USP39 Through Allosteric Ligands and PROTAC‐Induced Degradation” (Angewandte Chemie (International Ed. in English), 2025).

Tests used:
[1] = biological target: T1, USP39 (Homo sapiens, UniProt Q53GS9); assay: USP39 degradation across four cell lines (HeLa, HEK293T, LNCap, Kelly); format: cell-based; design: endogenous in cells; host or cells: HeLa-WT; HEK293T; LNCap; Kelly; details: for Concentration at which USP39 degradation was initiated: HeLa, HEK293T, LNCap, Kelly
T1 sequence (Q53GS9 1-565): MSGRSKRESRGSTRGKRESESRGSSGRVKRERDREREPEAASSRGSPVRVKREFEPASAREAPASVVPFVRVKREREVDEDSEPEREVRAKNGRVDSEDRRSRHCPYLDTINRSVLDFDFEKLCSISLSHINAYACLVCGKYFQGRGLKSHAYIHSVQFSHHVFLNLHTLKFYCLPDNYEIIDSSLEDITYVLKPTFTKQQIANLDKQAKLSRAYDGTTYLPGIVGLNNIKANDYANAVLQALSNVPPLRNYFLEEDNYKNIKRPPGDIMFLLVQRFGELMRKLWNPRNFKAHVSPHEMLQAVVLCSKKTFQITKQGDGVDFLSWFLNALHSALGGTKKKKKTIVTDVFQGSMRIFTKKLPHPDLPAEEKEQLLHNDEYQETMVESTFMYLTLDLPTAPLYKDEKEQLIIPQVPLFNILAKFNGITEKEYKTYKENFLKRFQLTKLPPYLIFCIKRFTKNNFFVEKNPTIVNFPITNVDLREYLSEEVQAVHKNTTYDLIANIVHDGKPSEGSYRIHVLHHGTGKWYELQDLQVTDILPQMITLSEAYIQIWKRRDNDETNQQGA

[2] = biological target: T2, USP39_FL (Homo sapiens, UniProt Q53GS9); assay: Thermal shift assay (TSA) with full-length USP39; format: binding
T2 construct: made in house
T2 sequence (Q53GS9 1-565): T1 sequence (Q53GS9 1-565)
From the text: To identify potential USP39 binders, we purified full‐length USP39 protein (USP39_FL, Figure SI1B) and conducted chemical screening using two complementary strategies. First, an in‐house bioactive collection of approximately 200 small molecules, previously assembled from our studies on cellular reprogramming, was screened using thermal shift assay (TSA, Figure 1a).^[ [2], [23], [24], [25], [26] ^] […] In parallel, a DNA‐encoded library (DEL) screening comprising roughly 600 million unique small molecules was performed. Each DEL compound carries a covalently attached DNA barcode that enables identification after target binding. For this screening, purified USP39_FL protein was immobilized on magnetic beads and incubated with the library; unbound molecules were washed away, and bound DNA‐tagged compounds were eluted. […]
Figure 1 Chemical screening identified thiazole‐containing compounds as USP39 binders. a) AlphaFold3‑predicted structure of full‐length USP39 (USP39_FL) showing three domains: an N‑terminal RS‑like domain (grey), a central zinc‑finger (ZNF) domain (cyan), and a C‑terminal USP domain (gold). […] The ΔT values are therefore given under an empty label, with the protein construct written in front. / Panels b and d: the print is small, so the digits in 55.0, 57.5, -2.5, -2.0 and -1.5 are best readings. […]

[3] = test system: 5′ splice site usage in exon 1 of ZNF414 and CRK; assay: RT-PCR analysis of alternative splicing in ZNF414 and CRK transcripts; format: cell-based, human; details: 10 nM, 24 h
Description: Figure 4 Effective and selective degradation of USP39 in cells by USP39‐PROTACs. a) Optimization of cellular degradation assay in HeLa cells transiently overexpressing USP39‑OFP (HeLa‐USP39‐OFP). […] GAPDH was used as a loading control. g) Proteasome dependence of USP39 degradation. HeLa‐WT cells were co‐treated with MG132 (0.25 µM) or DMSO control and USP39_PROTAC_V1 for 24 h ST. h) Representative immunofluorescence images of HeLa‐USP39_OFP cells treated with DMSO (NT), USP39_PROTAC_V1 (10 nM, 24 h), or USP39_PROTAC_V1 + MLN4924 (1 µM), stained for USP39 (red) and nuclei (blue). i) Quantification of USP39 degradation by fluorescence microscopy, showing DC50 values of 13 nM without MLN4924 (orange) and 204 nM with MLN4924 (blue) (MLN4924 = 5 uM). j) VHL‐dependence of PROTAC‐induced degradation. Schematic of PROTAC recruitment to VHL via hydroxyl‐proline interactions (His115, Ser111). Western blot comparing USP39 levels in VHL WT and VHL KO HeLa cells treated with USP39_PROTAC_V1. k) Fluorescence assay in HEK293T cells co‐expressing USP39‑OFP and either VHL_WT‑EGFP or VHL_m (Δ91–121). […] Comparison of untreated (NT) and USP39_PROTAC_V1–treated (10 nM, 24 h) samples. Percent spliced/unspliced (S/U) ratios are shown, reflecting USP39‐deficiency–associated splicing defects. Data represent at least four independent biological replicates. […]

[4] = biological target: USP39 / VHL (Homo sapiens, UniProt P40337+Q53GS9); assay: Co-immunoprecipitation of VHL with western blot for ubiquitin, USP39 and VHL; format: cell-based; details: in the presence of MLN4924
USP39 / VHL, sequence (P40337 whole entry, one chain of several): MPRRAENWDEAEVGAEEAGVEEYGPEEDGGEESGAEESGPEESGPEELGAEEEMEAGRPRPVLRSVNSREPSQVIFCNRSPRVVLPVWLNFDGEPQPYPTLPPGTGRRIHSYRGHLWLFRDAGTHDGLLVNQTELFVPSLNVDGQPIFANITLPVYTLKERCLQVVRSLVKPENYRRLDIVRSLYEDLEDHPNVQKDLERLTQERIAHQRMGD
USP39 / VHL, sequence (Q15370 whole entry partner, one chain of several): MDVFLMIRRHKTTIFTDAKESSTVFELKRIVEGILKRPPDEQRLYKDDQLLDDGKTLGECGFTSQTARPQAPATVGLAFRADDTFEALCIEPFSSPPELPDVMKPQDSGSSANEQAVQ
USP39 / VHL, sequence (Q15369 whole entry partner, one chain of several): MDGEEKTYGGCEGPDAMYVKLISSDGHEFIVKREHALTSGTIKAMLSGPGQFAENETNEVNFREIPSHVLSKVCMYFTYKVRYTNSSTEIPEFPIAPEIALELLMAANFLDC

In the case of `Cc1ncsc1-c1ccc(CNC(=O)C2CC(O)CN2C(=O)C(NC(=O)CCOCCOCCOCCNC(=O)c2csc(Nc3ccc(Cl)cc3)n2)C(C)(C)C)cc1` (stereo not drawn) [USP39_PROTAC_V1], the “Concentration above which USP39 levels recover (hook-effect)” value [1] is reported as “above 500 nM”, the “Concentration at which USP39 degradation was initiated” value ([1]; 6 h of treatment) is reported as 5 nM and the “Concentration at which USP39 degradation was initiated” value ([1]; 24 h of treatment) is reported as 1 nM. The “∆T (T max_Compound − T max_USP39), USP39_FL” value [2] was “comparable to that induced by USP39_B1”, the “Cryptic 5′ splice site usage in ZNF414 and CRK” value [3] was “reproduced these cryptic splicing events” and the “Co-immunoprecipitation from VHL pull-downs” value [4] was “enrichment of USP39 and polymerized ubiquitin”.
